How the values were obtained:
HER3 mRNA [1] = assay: real-time qPCR of HER3 mRNA; assay type: cell-based, human; settings: for HER3 mRNA/protein or pHER3: data not shown
Procedure: FIG. 12B depicts a bar chart of timed HER3 mRNA transcription in BT474 cells which were treated with 2 μM 5J8, 20 μM LY294002, and 50 nM rapamycin for 10 hours prior to RNA isolation and qPCR analysis with HER3-specific primers.

BT474 xenografts = assay: BT474 xenograft experiments; assay type: in vivo, mice; settings: trastuzumab 30 mg/kg twice-a-week i.p.; lapatinib 100 mg/kg daily; compound A 100 mg/kg daily gavage; 28 days
Procedure: Tumor volumes were recorded twice-a-week. Each data point represents the mean tumor volume in mm^3±SE of 8 mice per type of treatment. CR=complete response to treatment.
Animal experiments were approved by the Institutional Animal Care Committee of Vanderbilt University Medical Center (VUMC). Mice were housed in the accredited Animal Care Facility of the VUMC. A 17β-estradiol pellet (Innovative Research of America) was injected subcutaneously (s.c.) into each 6- to 7-week-old athymic female mice (Harlan Sprague Dawley, Inc.) the day before tumor cell injection. BT474 cells (3×10^6) mixed 1:1 with Matrigel (BD Biosciences) were injected s.c. into the right flank of each mouse. Tumor diameters were measured with calipers twice-a-week and volume in mm^3 calculated with the formula: volume=width^2×length/2. […] Mice were euthanized after 28 days of treatment.
There was no significant drug-related toxicity in any of the treatment arms.

[2] = tested on: HER3, pHER3^Y1289, pAKT^S473; assay: immunohistochemistry of BT474 xenografts; assay type: in vivo, mice; settings: day 28
Procedure: FIG. 18B depicts photomicrographs of immunohistochemistry sections from formalin-fixed, paraffin-embedded tumor blocks. Xenografts were harvested on day 28, 1 hour after the last dose of lapatinib and/or compound A. Antibodies used were against HER3, pHER3^Y1289, and pAKT^S473. Photographs were taken at 400× magnification (scale bar: 50 μm).
All tumor samples (collected within 1 hour of last treatment) were fixed in 10% neutral buffered formalin for 24 hours at room temperature, followed by dehydration and paraffin embedding. Immunostaining was done on 5-μm tissue sections. After deparaffinization in xylene and graded alcohols heat-induced antigen retrieval was performed in a pH 6.0 citrate buffer followed by incubation with 3% hydrogen peroxide for 20 minutes, with protein block (Dako) for 10 minutes, and finally with primary antibody overnight at 4° C. The Envision Visualization System (Dako, Carpinteria, Calif., USA) was used, followed by DAB as chromagen and counterstained with hematoxylin. Tumor sections were studied on a light microscope with an ocular magnification of 400 times. Average percentage and intensity of tumor cell staining was calculated as a histoscore (H-score) (as described in Goulding, H., et al. (1995), Hum. Pathol. 26:291-294, which is incorporated herein by reference in its entirety). An expert pathologist (MGK) scoring the sections was blinded to the type of treatment.
Using immunohistochemistry (IHC), experiments were performed to examine pharmacodynamic biomarkers of target inactivation in xenografts after 28 days of treatment. […] Therefore, experiments were performed to quantify differences in pAKT^S473 expression in both cytoplasmic and nuclear compartments in xenograft sections.

HER3 mRNA [3] = settings: ovarian cancer cells; cited from earlier work

Structure (SMILES): CS(=O)(=O)CCNCc1ccc(-c2ccc3ncnc(Nc4ccc(OCc5cccc(F)c5)c(Cl)c4)c3c2)o1 [lapatinib, reference compound]
- HER3 mRNA levels (HER3 mRNA [1]; BT474, compound A 6 μM, lapatinib 1 μM, trastuzumab 10 μg/ml, 10 hours): markedly induced HER3 mRNA
- tumor growth, monotherapy (BT474 xenografts): significantly delayed tumor growth
- pHER3 by IHC [2]: more effective than trastuzumab in reducing pHER3

Structure (SMILES): CS(=O)(=O)N1CCN(Cc2cc3nc(-c4cccc5[nH]ncc45)nc(N4CCOCC4)c3s2)CC1 [GDC-0941]
- HER3 mRNA downregulation by heregulin (HER3 mRNA [3]): blocked downregulation of the HER3 mRNA

Structure (SMILES): CO[C@H]1C[C@@H]2CC[C@@H](C)[C@@](O)(O2)C(=O)C(=O)N2CCCC[C@H]2C(=O)O[C@H]([C@H](C)C[C@@H]2CC[C@@H](OCCO)[C@H](OC)C2)CC(=O)[C@H](C)/C=C(\C)[C@@H](O)[C@@H](OC)C(=O)[C@H](C)C[C@H](C)/C=C/C=C/C=C/1C [RAD001, everolimus]
- HER3 mRNA/protein or pHER3 (HER3 mRNA [1]): did not upregulate HER3 mRNA/protein or pHER3

Structure (SMILES): O=C(NOCC1CC1)c1ccc(F)c(F)c1Nc1ccc(I)cc1Cl [CI-1040]
- HER3 mRNA/protein or pHER3 (HER3 mRNA [1]): did not upregulate HER3 mRNA/protein or pHER3

Reference: patent US9011863B2, “Combinations of kinase inhibitors for the treatment of cancer” (Exelixis, Inc., priority 2010, dated 2015)
